Assay results: ChEMBL document CHEMBL4196048, “Discovery and characterization of a potent Wnt and hedgehog signaling pathways dual inhibitor” (Eur J Med Chem, 2018)
Active and inactive are the calls of the source. No cut-off for these calls is given here.

Key:
Protein smoothened [1] = biological target: Protein smoothened (Mus musculus, UniProt P56726); test: (§1) Inhibition of smo-mediated hedgehog signaling pathway in mouse NIH3T3 cells expressing GRE-Luc reporter gene assessed as inhibition of SAG-induced GRE-Luc reporter activity after 48 hrs by luminescence assay; format: functional, cell-based
[2] = biological target: T1, Protein-serine O-palmitoleoyltransferase porcupine (Mus musculus, UniProt Q9JJJ7); test: (§2) Inhibition of porcupine in mouse L Wnt3A cells co-cultured with HEK293 cells assessed as suppression of Wnt signaling after 48 hrs by Super-top flash reporter gene assay; format: cell-based
T1 sequence (Q9JJJ7 whole entry): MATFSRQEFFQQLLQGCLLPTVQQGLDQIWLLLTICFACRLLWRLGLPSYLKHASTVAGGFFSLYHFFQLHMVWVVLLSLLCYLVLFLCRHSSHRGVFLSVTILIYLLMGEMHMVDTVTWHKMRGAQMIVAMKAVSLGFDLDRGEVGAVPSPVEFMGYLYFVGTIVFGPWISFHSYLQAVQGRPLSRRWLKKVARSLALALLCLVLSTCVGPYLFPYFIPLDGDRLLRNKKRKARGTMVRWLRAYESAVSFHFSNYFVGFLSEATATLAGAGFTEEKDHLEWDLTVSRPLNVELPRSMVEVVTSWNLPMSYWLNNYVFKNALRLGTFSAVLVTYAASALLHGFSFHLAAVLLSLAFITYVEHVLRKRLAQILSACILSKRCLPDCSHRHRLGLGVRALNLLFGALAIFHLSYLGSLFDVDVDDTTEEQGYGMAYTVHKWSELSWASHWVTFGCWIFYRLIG

[3] = biological target: Protein smoothened (Mus musculus) (UniProt P56726); test: Inhibition of smo-mediated hedgehog signaling pathway in mouse NIH3T3-Luc cells assessed as downregulation of Gli mRNA expression at 1 uM after 48 hrs by real-time PCR analysis; format: functional, cell-based
[4] = biological target: Protein smoothened (Mus musculus) (UniProt P56726); test: as §1; format: functional, cell-based
[5] = biological target: T2, Protein-serine O-palmitoleoyltransferase porcupine (Homo sapiens) (UniProt Q9H237); test: Inhibition of porcupine in HEK293T cells transfected with pLibin-WNT3A plasmid assessed as reduction in Wnt3A secretion into cell culture medium at 100 nM after 48 hrs by Western blot method; format: cell-based
T2 sequence (whole entry): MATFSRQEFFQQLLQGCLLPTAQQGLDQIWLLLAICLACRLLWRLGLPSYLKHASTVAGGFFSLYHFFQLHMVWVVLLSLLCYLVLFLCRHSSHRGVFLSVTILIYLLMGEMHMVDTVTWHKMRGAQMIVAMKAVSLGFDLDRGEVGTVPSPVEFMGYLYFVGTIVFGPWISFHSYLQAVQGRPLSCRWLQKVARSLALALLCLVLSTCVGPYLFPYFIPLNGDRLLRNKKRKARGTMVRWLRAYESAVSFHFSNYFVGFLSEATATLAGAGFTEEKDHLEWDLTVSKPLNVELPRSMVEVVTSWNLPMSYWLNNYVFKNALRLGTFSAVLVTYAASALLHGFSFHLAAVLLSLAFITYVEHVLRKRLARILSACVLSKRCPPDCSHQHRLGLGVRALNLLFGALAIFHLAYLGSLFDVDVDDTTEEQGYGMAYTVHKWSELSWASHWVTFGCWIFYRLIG

[6] = biological target: T2, Protein-serine O-palmitoleoyltransferase porcupine (Homo sapiens); test: Inhibition of porcupine-mediated Wnt/beta-catenin signaling in human PA1 cells assessed as downregulation of LRP6 phosphorylation after 48 hrs by Western blot analysis; format: cell-based
HEK-293T = test: Effect on Wnt3A levels in HEK293T cells transfected with pLibin-WNT3A plasmid at 100 nM after 48 hrs by Western blot method; format: functional, cell-based; settings: Homo sapiens
[7] = biological target: T2, Protein-serine O-palmitoleoyltransferase porcupine (Homo sapiens); test: Inhibition of porcupine in HEK293 cells transfected with pLibin-WNT3A plasmid assessed as downregulation of disheveled 2 phosphorylation at 100 nM after 48 hrs by Western blot analysis; format: cell-based
[8] = biological target: T2, Protein-serine O-palmitoleoyltransferase porcupine (Homo sapiens); test: Inhibition of porcupine-mediated Wnt/beta-catenin signaling in human PA1 cells assessed as downregulation of Axin2 mRNA expression after 24 hrs by real-time PCR analysis; format: cell-based
[9] = biological target: T2, Protein-serine O-palmitoleoyltransferase porcupine (Homo sapiens); test: Inhibition of porcupine in HEK293 cells transfected with pLibin-WNT3A plasmid assessed as downregulation of LRP6 phosphorylation at 100 nM after 48 hrs by Western blot analysis; format: cell-based
[10] = biological target: T2, Protein-serine O-palmitoleoyltransferase porcupine (Homo sapiens); test: Inhibition of porcupine-mediated Wnt/beta-catenin signaling in human PA1 cells assessed as downregulation of disheveled 2 phosphorylation after 48 hrs by Western blot analysis; format: cell-based
[11] = biological target: T3, Protein-serine O-palmitoleoyltransferase porcupine (Mus musculus) (UniProt Q9JJJ7); test: as §2; format: cell-based
T3 sequence (whole entry): T1 sequence (Q9JJJ7 whole entry)

Mus musculus [12] = test: Toxicity in C57BL/6J mouse assessed as effect on food consumption at 10 mg/kg administered for 7 days via oral gavage; format: organism-based; settings: in vivo, 168 h
Mus musculus [13] = test: Toxicity in C57BL/6J mouse assessed as effect on liver weight at 10 mg/kg administered for 7 days via oral gavage; format: organism-based; settings: in vivo, 168 h
Mus musculus [14] = test: Time at which blood concentration stays above in vitro IC50 for porcupine-mediated Wnt signaling and smo-mediated hedgehog signaling pathway in ICR mouse at 10 mg/kg, po administered via gavage by LC-MS/MS analysis; format: ADME, organism-based; settings: in vivo
[15] = Half life in ICR mouse at 10 mg/kg, po administered via gavage by LC-MS/MS analysis; format: ADME, organism-based; settings: in vivo
[16] = Volume of distribution at steady state in ICR mouse at 2 mg/kg, iv by LC-MS/MS analysis; format: ADME, organism-based; settings: in vivo, read-out: Vdss
[17] = Oral bioavailability in ICR mouse at 10 mg/kg administered via gavage by LC-MS/MS analysis; format: ADME, organism-based; settings: in vivo
[18] = biological target: Protein smoothened (Mus musculus) (UniProt P56726); test: Inhibition of smo-mediated hedgehog signaling pathway in mouse NIH3T3-Luc cells assessed as downregulation of 1 to 100 nM SAG-induced Gli luciferase activity after 48 hrs luminescence assay; format: functional, cell-based
Mus musculus [19] = test: Toxicity in C57BL/6J mouse assessed as effect on lung weight at 10 mg/kg administered for 7 days via oral gavage; format: organism-based; settings: in vivo, 168 h
Mus musculus [20] = test: Toxicity in C57BL/6J mouse assessed as effect on spleen architecture at 10 mg/kg administered via oral gavage for 7 days by hematoxylin and eosin staining-based method; format: organism-based; settings: in vivo, 168 h
[21] = Tmax in ICR mouse at 10 mg/kg, po administered via gavage by LC-MS/MS analysis; format: ADME, organism-based; settings: in vivo
Mus musculus [22] = test: Toxicity in C57BL/6J mouse assessed as effect on RBC count in blood at 10 mg/kg administered for 7 days via oral gavage; format: organism-based; settings: in vivo, 168 h
Astrocyte = test: Cytotoxicity against primary astrocytes (unknown origin) up to 20 uM after 24 hrs by MTT assay; format: cell-based
Mus musculus [23] = test: Toxicity in C57BL/6J mouse assessed as body weight loss at 10 mg/kg administered for 7 days via oral gavage; format: organism-based; settings: in vivo, 168 h
Mus musculus [24] = test: Toxicity in C57BL/6J mouse assessed as effect on spleen weight at 10 mg/kg administered for 7 days via oral gavage; format: organism-based; settings: in vivo, 168 h
Mus musculus [25] = test: Toxicity in C57BL/6J mouse assessed as effect on behavior at 10 mg/kg administered for 7 days via oral gavage; format: organism-based; settings: in vivo, 168 h
Mus musculus [26] = test: Toxicity in C57BL/6J mouse assessed as effect on liver architecture at 10 mg/kg administered via oral gavage for 7 days by hematoxylin and eosin staining-based method; format: organism-based; settings: in vivo, 168 h
Mus musculus [27] = test: Toxicity in C57BL/6J mouse assessed as effect on platelet count in blood at 10 mg/kg administered for 7 days via oral gavage; format: organism-based; settings: in vivo, 168 h
Mus musculus [28] = test: Toxicity in C57BL/6J mouse assessed as effect on lymphocyte count in blood at 10 mg/kg administered for 7 days via oral gavage; format: organism-based; settings: in vivo, 168 h
Mus musculus [29] = test: Toxicity in C57BL/6J mouse assessed as effect on colon architecture at 10 mg/kg administered via oral gavage for 7 days by hematoxylin and eosin staining-based method; format: organism-based; settings: in vivo, 168 h
[30] = Cmax in ICR mouse at 10 mg/kg, po administered via gavage by LC-MS/MS analysis; format: ADME, organism-based; set-up: dose 10 mg/kg, route oral; settings: in vivo
Mus musculus [31] = test: Toxicity in C57BL/6J mouse assessed as effect on hemoglobin content in blood at 10 mg/kg administered for 7 days via oral gavage; format: organism-based; settings: in vivo, 168 h
[32] = Clearance in ICR mouse at 2 mg/kg, iv by LC-MS/MS analysis; format: ADME, organism-based; settings: in vivo
Mus musculus [33] = test: Toxicity in C57BL/6J mouse assessed as effect on WBC count in blood at 10 mg/kg administered for 7 days via oral gavage; format: organism-based; settings: in vivo, 168 h
Mus musculus [34] = test: Toxicity in C57BL/6J mouse assessed as effect on heart weight at 10 mg/kg administered for 7 days via oral gavage; format: organism-based; settings: in vivo, 168 h
[35] = Half life in ICR mouse at 2 mg/kg, iv by LC-MS/MS analysis; format: ADME, organism-based; settings: in vivo
[36] = AUC (0 to 24 hrs) in ICR mouse at 10 mg/kg, po administered via gavage by LC-MS/MS analysis; format: ADME, organism-based; set-up: time < 24 hr, dose 10 mg/kg, route oral; settings: in vivo
GES1 = test: Cytotoxicity against human GES-1 cells up to 20 uM by Cell Titer-Glo assay; format: cell-based
Mus musculus [37] = test: Toxicity in C57BL/6J mouse assessed as effect on kidney weight at 10 mg/kg administered for 7 days via oral gavage; format: organism-based; settings: in vivo, 168 h
Mus musculus [38] = test: Toxicity in C57BL/6J mouse assessed as effect on stomach architecture at 10 mg/kg administered via oral gavage for 7 days by hematoxylin and eosin staining-based method; format: organism-based; settings: in vivo, 168 h
Protein smoothened [39] = biological target: Protein smoothened (Homo sapiens, UniProt Q99835); test: Inhibition of Bodipy-cyclopamine binding to human Smo expressed in human U2OS cells after 2 hrs by high content fluorescence imaging analysis; format: cell-based
[40] = AUC (0 to 24 hrs) in ICR mouse at 2 mg/kg, iv by LC-MS/MS analysis; format: ADME, organism-based; set-up: dose 2 mg/kg, time < 24 hr, route intravenous; settings: in vivo
[41] = biological target: Protein smoothened (Mus musculus) (UniProt P56726); test: Inhibition of smo-mediated hedgehog signaling pathway in mouse NIH3T3-Luc cells assessed as downregulation of Gli mRNA expression after 48 hrs by real-time PCR analysis; format: functional, cell-based
[42] = Protein binding in mouse plasma; format: ADME, cell-free; settings: read-out: PPB (converted)

Protein smoothened (Mus musculus, UniProt P56726), sequence (P56726 whole entry): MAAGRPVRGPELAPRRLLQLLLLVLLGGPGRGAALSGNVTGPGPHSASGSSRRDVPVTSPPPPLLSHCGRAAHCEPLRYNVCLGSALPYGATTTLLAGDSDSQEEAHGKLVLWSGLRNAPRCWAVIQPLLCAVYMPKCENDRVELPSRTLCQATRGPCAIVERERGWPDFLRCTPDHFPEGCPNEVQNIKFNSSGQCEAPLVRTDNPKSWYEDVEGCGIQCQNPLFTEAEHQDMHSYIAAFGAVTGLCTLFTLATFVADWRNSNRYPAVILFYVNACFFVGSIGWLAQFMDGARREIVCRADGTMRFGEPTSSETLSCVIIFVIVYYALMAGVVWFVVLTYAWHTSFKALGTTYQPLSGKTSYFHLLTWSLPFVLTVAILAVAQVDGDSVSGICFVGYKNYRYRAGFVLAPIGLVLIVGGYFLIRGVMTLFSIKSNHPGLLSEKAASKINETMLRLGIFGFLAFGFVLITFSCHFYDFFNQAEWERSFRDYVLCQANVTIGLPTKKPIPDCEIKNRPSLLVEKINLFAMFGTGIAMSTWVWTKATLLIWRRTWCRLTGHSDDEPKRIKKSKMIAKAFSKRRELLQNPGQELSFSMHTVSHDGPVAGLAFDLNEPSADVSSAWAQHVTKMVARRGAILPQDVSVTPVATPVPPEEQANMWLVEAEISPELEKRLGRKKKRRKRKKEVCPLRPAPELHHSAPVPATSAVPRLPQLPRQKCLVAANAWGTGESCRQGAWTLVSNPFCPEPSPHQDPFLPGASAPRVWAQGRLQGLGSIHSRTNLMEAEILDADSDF
Protein smoothened (Mus musculus), sequence (P56726 whole entry): as above
Protein smoothened (Homo sapiens, UniProt Q99835), sequence (Q99835 whole entry): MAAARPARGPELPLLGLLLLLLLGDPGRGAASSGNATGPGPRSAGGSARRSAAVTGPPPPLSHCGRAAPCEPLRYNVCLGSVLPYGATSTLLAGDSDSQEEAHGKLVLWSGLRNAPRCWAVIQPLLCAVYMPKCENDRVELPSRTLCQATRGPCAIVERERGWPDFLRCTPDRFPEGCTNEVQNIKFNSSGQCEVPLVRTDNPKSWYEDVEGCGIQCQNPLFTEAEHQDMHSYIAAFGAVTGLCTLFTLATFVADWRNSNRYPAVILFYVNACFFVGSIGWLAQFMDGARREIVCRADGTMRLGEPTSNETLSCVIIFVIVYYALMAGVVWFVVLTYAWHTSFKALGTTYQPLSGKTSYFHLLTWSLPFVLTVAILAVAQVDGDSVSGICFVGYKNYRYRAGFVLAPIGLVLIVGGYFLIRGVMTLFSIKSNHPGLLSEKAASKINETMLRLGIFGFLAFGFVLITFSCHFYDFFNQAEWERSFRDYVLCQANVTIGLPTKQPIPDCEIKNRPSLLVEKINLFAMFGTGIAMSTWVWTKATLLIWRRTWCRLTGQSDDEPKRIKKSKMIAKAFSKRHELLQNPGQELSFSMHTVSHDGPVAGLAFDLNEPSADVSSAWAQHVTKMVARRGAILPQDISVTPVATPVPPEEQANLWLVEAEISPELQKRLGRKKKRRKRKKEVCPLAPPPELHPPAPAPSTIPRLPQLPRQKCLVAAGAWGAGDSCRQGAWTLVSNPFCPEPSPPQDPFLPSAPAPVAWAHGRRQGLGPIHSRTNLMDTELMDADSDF

COc1cc(CNC(=O)c2ccc3c(c2)[nH]c2ccccc23)cnc1-c1ccnc(C)c1
IC50 (Protein smoothened [1]): 3660 nM
IC50 [2]: 1.9 nM

Cc1cc(-c2ncc(CC(=O)Nc3ccc(-c4cnccn4)cn3)cc2C)ccn1
inhibition [3]: inactive
inhibition [4]: inactive
inhibition [5]: Active
inhibition [6]: Active
Activity (HEK-293T): inactive
inhibition [7]: Active
inhibition [8]: Active
inhibition [9]: Active
inhibition [10]: Active

Cc1cc(-c2ncc(CNC(=O)c3ccc4c(c3)oc3ccccc34)cc2F)ccn1
IC50 [2]: 2.1 nM

Cc1cc(-c2ncc(CNC(=O)c3ccc4c(c3)Cc3ccccc3-4)cc2F)ccn1
IC50 [2]: 6.5 nM

CS(=O)(=O)c1ccc(C(=O)Nc2ccc(Cl)c(-c3ccccn3)c2)c(Cl)c1
inhibition [5]: inactive
inhibition [6]: inactive
inhibition [8]: inactive
inhibition [11]: inactive
inhibition [10]: inactive

Cc1cc(-c2ncc(CNC(=O)c3ccc4c(c3)[nH]c3ccccc34)cc2C#N)ccn1
IC50 (Protein smoothened [1]): 1220 nM
IC50 [2]: 0.72 nM

Cc1cc(-c2ncc(CNC(=O)c3ccc4c(c3)[nH]c3ccccc34)cc2F)ccn1
Activity (Mus musculus [12]): Non-Toxic
Activity (Mus musculus [13]): Non-Toxic
Time (Mus musculus [14]): 10 h
half-life [15]: 126 min
Vd [16]: 0.4 L/kg
bioavailability [17]: 49%
inhibition [18]: Active
Activity (Mus musculus [19]): Non-Toxic
Activity (Mus musculus [20]): Non-Toxic
Tmax [21]: 30 min
Activity (Mus musculus [22]): Non-Toxic
IC50 (Protein smoothened [1]): 71 nM
inhibition [4]: Dose-dependent effect
Activity (Astrocyte): Non-Toxic
Activity (Mus musculus [23]): Non-Toxic
inhibition [5]: Active
Activity (Mus musculus [24]): Non-Toxic
Activity (Mus musculus [25]): Non-Toxic
Activity (Mus musculus [26]): Non-Toxic
inhibition [6]: Active
Activity (Mus musculus [27]): Non-Toxic
Activity (Mus musculus [28]): Non-Toxic
Activity (Mus musculus [29]): Non-Toxic
Activity (HEK-293T): inactive
Cmax [30]: 5140 ng/mL
Activity (Mus musculus [31]): Non-Toxic
clearance [32]: 6.1 mL/min/kg
inhibition [7]: Active
Activity (Mus musculus [33]): Non-Toxic
Activity (Mus musculus [34]): Non-Toxic
inhibition [8]: Active
half-life [35]: 66 min
AUC(0-t) at 24 h [36]: 13500 ng·h/mL
Activity (GES1): Non-Toxic
Activity (Mus musculus [37]): Non-Toxic
inhibition [9]: Active
Activity (Mus musculus [38]): Non-Toxic
IC50 (Protein smoothened [39]): > 10 µM
AUC(0-t) at 24 h [40]: 5460 ng·h/mL
inhibition [10]: Active
inhibition [41]: Dose-dependent effect
fraction unbound [42]: 0.007
